Experiments:
weeds [1] = assay: Post-emergence test, activity against weeds; format: in vivo; settings: test plants of a height of 5-15 cm sprayed, rated after three weeks vs untreated control
Procedure: (§1) Solvent: 5 parts by weight of acetone
(§2) Emulsifier: 1 part by weight of alkylaryl polyglycol ether
To produce a suitable preparation of active compound, 1 part by weight of active compound is mixed with the stated amount of solvent, the stated amount of emulsifiers is added and the concentrate is diluted with water to the desired concentration.
Test plants of a height of 5-15 cm are sprayed with the preparation of active compound such that the particular amounts of active compound are employed per unit area. The concentration of the spray liquor is chosen so that the particular amounts of active compound desired are applied in 1000 l of water/ha.
(§3) After three weeks, the degree of damage to the plants is rated in % damage in comparison to the development of the untreated control.
(§4) 0%=no effect (like untreated control)

[2] = test system: crop plants, such as, for example, barley and cotton; assay: Pre-emergence test, tolerance by crop plants; format: in vivo; settings: rated after three weeks
Procedure: as §1, §2
(§5) To produce a suitable preparation of active compound, 1 part by weight of active compound is mixed with the stated amount of solvent, the stated amount of emulsifier is added and the concentrate is diluted with water to the desired concentration.
(§6) Seeds of the test plants are sown in normal soil. After about 24 hours, the soil is sprayed with the preparation of active compounds such that the particular amounts of active compound desired are applied per unit area. The concentration of the spray liquor is chosen so that the particular amounts of active compound desired are applied in 1000 l of water/ha.
as §3, §4

weeds [3] = assay: Pre-emergence test, activity against weeds; format: in vivo; settings: soil sprayed about 24 hours after sowing, rated after three weeks vs untreated control
Procedure: as §1, §2, §5, §6, §3, §4

O=c1cc(C(F)(F)F)[nH]c(=O)n1-c1ccc(OCc2ccc(Cl)c([N+](=O)[O-])c2)cc1F [Example 1, 1-[2-fluoro-4-(4-chloro-3-nitro-benzyloxy)-phenyl]-4-trifluoromethyl-3,6-dihydro-2,6-dioxo-1(2H)-pyrimidine]
melting point: 165 °C

Cn1c(C(F)(F)F)cc(=O)n(-c2ccc(OCc3ccc(Cl)c([N+](=O)[O-])c3)cc2F)c1=O [Example 2, 1-[2-fluoro-4-(4-chloro-3-nitro-benzyloxy)-phenyl]-3-methyl-4-trifluoromethyl-3,6-dihydro-2,6-dioxo-1 (2H)-pyrimidine]
activity against weeds (degree of damage to the plants) (weeds [1]): very strong activity
melting point: 133 °C

Nn1c(C(F)(F)F)cc(=O)n(-c2ccc(OCc3ccc(Cl)c([N+](=O)[O-])c3)cc2F)c1=O [Example 3, 3-amino-1-[2-fluoro-4-(4-chloro-3-nitro-benzyl-oxy)-phenyl]-4-trifluoromethyl-3,6-dihydro-2,6-dioxo-1(2H)-pyrimidine]
activity against weeds (degree of damage to the plants) (weeds [1]): very strong activity
melting point: 185 °C

Cn1c(C(F)(F)F)cc(=O)n(-c2ccc(OCc3ccc(Cl)c(N)c3)cc2F)c1=O [Example 4, 1-[2-fluoro-4-(3-amino-4-chloro-benzyloxy)-phenyl]-3-methyl-4-trifluoromethyl-3,6-dihydro-2,6-dioxo-1 (2H)-pyrimidine]
activity against weeds (degree of damage to the plants) (weeds [1]): very strong activity
melting point: 148 °C

CCS(=O)(=O)Nc1cc(COc2ccc(-n3c(=O)cc(C(F)(F)F)n(C)c3=O)c(F)c2)ccc1Cl [Example 5, 1-[2-fluoro-4-(4-chloro-3-ethylsulphonylamino-benzyloxy)-phenyl]-3-methyl-4-trifluoromethyl-3,6-dihydro-2,6-dioxo-1(2H)-pyrimidine]
activity against weeds (degree of damage to the plants) (weeds [1]): very strong activity
tolerance by crop plants [2]: tolerated well
activity against weeds (degree of damage to the plants) (weeds [3]): very strong activity
melting point: 151 °C
